From PMC5391016 (PLoS ONE, 2017)

Tested on: T1, Epac1-camps-PDE4A1
T1 construct: gene RAPGEF3
Conditions: read-out: pEC50 5.56 ± 0.08 (converted); 10 mM Tris, 10 mM MgCl2; apparent affinity; PDE catalytically impaired

EC50: 2700 nM
SMILES: Nc1ncnc2c1ncn2[C@@H]1O[C@@H]2COP(=O)(O)O[C@H]2[C@H]1O [cAMP]
